Reference: PubChem BioAssay AID256 (DTP/NCI, 2004)
Inconclusive results and toxic doses are left out. The calls were made as follows: active = survival T/C of 150% or more; inactive = T/C below 125% in these data.

Test system: CD2F1 mice, L1210 leukemia ip, survival T/C
Assay: NCI In Vivo Anticancer Drug Screen. Data for tumor model L1210 Leukemia (intraperitoneal) in CD2F1 (CDF1) mice
Settings: endpoint: mean survival time, higher = longer survival
Method in brief: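 Antitumor effect is scored in animals hosting a serially transplanted tumor. Values compare compound-dosed animals against vehicle-only controls as a simple quotient.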

[1] = dose: 25.0 mg/kg/injection, schedule: Q04DX002 (ip), vehicle: saline with Tween-80
[2] = dose: 50.0 mg/kg/injection, schedule: Q04DX002 (ip), vehicle: saline with Tween-80
[3] = dose: 100.0 mg/kg/injection, schedule: Q04DX002 (ip), vehicle: saline with Tween-80
[4] = dose: 100.0 mg/kg/injection, schedule: Q04DX003 (ip), vehicle: saline with Tween-80
[5] = dose: 200.0 mg/kg/injection, schedule: Q04DX003 (ip), vehicle: saline with Tween-80
[6] = dose: 400.0 mg/kg/injection, schedule: Q04DX003 (ip), vehicle: saline with Tween-80
[7] = dose: 100.0 mg/kg/injection, schedule: Q01DX001 (ip), vehicle: saline with Tween-80
[8] = dose: 100.0 mg/kg/injection, schedule: Q01DX009 (ip), vehicle: saline with Tween-80
[9] = dose: 200.0 mg/kg/injection, schedule: Q01DX001 (ip), vehicle: saline with Tween-80
[10] = dose: 200.0 mg/kg/injection, schedule: Q01DX009 (ip), vehicle: saline with Tween-80
[11] = dose: 400.0 mg/kg/injection, schedule: Q01DX001 (ip), vehicle: saline with Tween-80
[12] = dose: 400.0 mg/kg/injection, schedule: Q01DX009 (ip), vehicle: saline with Tween-80
[13] = dose: 25.0 mg/kg/injection, schedule: Q01DX009 (ip), vehicle: saline with Tween-80
[14] = dose: 50.0 mg/kg/injection, schedule: Q01DX009 (ip), vehicle: saline with Tween-80

Measured: T/C

OC(COc1ccccc1Cl)COc1ccccc1Cl
inactive: dose: 100.0 mg/kg/injection, schedule: Q04DX003 (ip), vehicle: saline + alcohol 101 % of control | dose: 200.0 mg/kg/injection, schedule: Q04DX003 (ip), vehicle: saline + alcohol 95 % of control | dose: 400.0 mg/kg/injection, schedule: Q04DX003 (ip), vehicle: saline + alcohol 95 % of control

C/C=C(\Br)C(=O)O
inactive: [1] 101 % of control | [2] 101 % of control | [3] 104 % of control

N#Cc1cccc2c(S(=O)(=O)O)cccc12
inactive: [4] 98 % of control | [5] 90 % of control | [6] 104 % of control

CCCC(=O)c1cc(O)ccc1O
inactive: dose: 100.0 mg/kg/injection, schedule: Q01DX001 (ip), vehicle: saline 101 % of control | dose: 200.0 mg/kg/injection, schedule: Q01DX001 (ip), vehicle: saline 96 % of control | dose: 400.0 mg/kg/injection, schedule: Q01DX001 (ip), vehicle: saline 104 % of control

CCC(C)NC(=O)Nc1ccccc1C(F)(F)F (stereo not given)
inactive: [7] 106 % of control | [8] 92 % of control | [9] 95 % of control | [10] 88 % of control | [11] 89 % of control | [12] 94 % of control

CC(C)(C)CC(C)(C)c1ccc(O)cc1O
inactive: [13] 105 % of control | [14] 103 % of control | [7] 101 % of control | [8] 94 % of control

c1ccc(-c2ncnc3ccccc23)cc1
inactive: [4] 103 % of control | [5] 101 % of control | [6] 97 % of control

Nc1ccc(CCCCc2ccc(Cl)cc2Cl)cc1
inactive: [4] 104 % of control | [5] 110 % of control

CN1C(/C(C(=O)C(F)(F)F)=C(\O)C(F)(F)F)=NCc2ccccc21
inactive: dose: 100.0 mg/kg/injection, schedule: Q04DX003 (ip), vehicle: Klucel (hydroxypropylcellulose) (HPC) 102 % of control | dose: 200.0 mg/kg/injection, schedule: Q04DX003 (ip), vehicle: Klucel (hydroxypropylcellulose) (HPC) 98 % of control | dose: 400.0 mg/kg/injection, schedule: Q04DX003 (ip), vehicle: Klucel (hydroxypropylcellulose) (HPC) 98 % of control

CCCCCCCCCCCCCCCC(CCCCCC)CCCCCC
inactive: dose: 100.0 mg/kg/injection, schedule: Q01DX001 (ip), vehicle: saline sonified 102 % of control | dose: 200.0 mg/kg/injection, schedule: Q01DX001 (ip), vehicle: saline sonified 98 % of control | dose: 400.0 mg/kg/injection, schedule: Q01DX001 (ip), vehicle: saline sonified 102 % of control

CCCN(CCC)c1c([N+](=O)[O-])cc(C(N)=O)cc1[N+](=O)[O-]
inactive: dose: 12.5 mg/kg/injection, schedule: Q01DX009 (ip), vehicle: saline with Tween-80 96 % of control | [13] 96 % of control | [14] 90 % of control

Nc1ncnc(N)c1N=O
inactive: [4] 96 % of control | [5] 89 % of control

CC(=O)Nc1ccc(C#[N+][S-])cc1
inactive: dose: 3.13 mg/kg/injection, schedule: Q01DX001 (ip), vehicle: Klucel (hydroxypropylcellulose) (HPC) 104 % of control | dose: 6.25 mg/kg/injection, schedule: Q01DX001 (ip), vehicle: Klucel (hydroxypropylcellulose) (HPC) 97 % of control | dose: 12.5 mg/kg/injection, schedule: Q01DX001 (ip), vehicle: Klucel (hydroxypropylcellulose) (HPC) 93 % of control

Cc1cnc(O[Si](C)(C)C)nc1O[Si](C)(C)C
inactive: [8] 97 % of control | [4] 97 % of control | [10] 96 % of control | [5] 98 % of control | [12] 103 % of control | [6] 101 % of control

COC1=C(OC)C(C(O)CO)OC1=O (stereo not given)
inactive: dose: 25.0 mg/kg/injection, schedule: Q01DX009 (ip), vehicle: water 93 % of control | dose: 50.0 mg/kg/injection, schedule: Q01DX009 (ip), vehicle: water 89 % of control | dose: 100.0 mg/kg/injection, schedule: Q01DX009 (ip), vehicle: water 100 % of control | dose: 200.0 mg/kg/injection, schedule: Q01DX009 (ip), vehicle: water 94 % of control | dose: 400.0 mg/kg/injection, schedule: Q01DX009 (ip), vehicle: water 100 % of control

CC(=O)CC(=O)c1ccccc1.CC(=O)CC(=O)c1ccccc1.[Cl][Sn][Cl]
inactive: [7] 92 % of control | [9] 100 % of control | [11] 107 % of control

CCOc1ccccc1C=C(C#N)C#N
inactive: [1] 96 % of control | [2] 96 % of control | [3] 93 % of control

CC[C@H](CC[C@@H](C)[C@H]1CC[C@H]2[C@@H]3CC=C4C[C@@H](O)CC[C@]4(C)[C@H]3CC[C@]12C)C(C)C
inactive: [8] 89 % of control | [10] 101 % of control | [12] 95 % of control

Cc1c(C)c(NC(=O)/C=C/C(=O)O)c(C)c(C)c1NC(=O)/C=C\C(=O)O
inactive: dose: 100.0 mg/kg/injection, schedule: Q01DX001 (ip), vehicle: Klucel (hydroxypropylcellulose) (HPC) 101 % of control | dose: 200.0 mg/kg/injection, schedule: Q01DX001 (ip), vehicle: Klucel (hydroxypropylcellulose) (HPC) 96 % of control | dose: 400.0 mg/kg/injection, schedule: Q01DX001 (ip), vehicle: Klucel (hydroxypropylcellulose) (HPC) 98 % of control

S=C1OC(c2ccccc2)(c2ccccc2)c2ccsc21
inactive: dose: 25.0 mg/kg/injection, schedule: Q01DX001 (ip), vehicle: saline with Tween-80 95 % of control | dose: 50.0 mg/kg/injection, schedule: Q01DX001 (ip), vehicle: saline with Tween-80 95 % of control

COC(=O)CCCCC(C)=O
inactive: [8] 101 % of control | dose: 100.0 mg/kg/injection, schedule: Q04DX003 (ip), vehicle: saline sonified 98 % of control | [10] 101 % of control | dose: 200.0 mg/kg/injection, schedule: Q04DX003 (ip), vehicle: saline sonified 98 % of control | [12] 98 % of control | dose: 400.0 mg/kg/injection, schedule: Q04DX003 (ip), vehicle: saline sonified 102 % of control

CN1CCCC(OC(=O)C(c2ccccc2)C2(O)CCCCC2)C1 (stereo not given)
inactive: dose: 75.0 mg/kg/injection, schedule: Q01DX001 (ip), vehicle: saline 101 % of control

COc1cccc2c1C(=O)c1c(O)c3c(c(O)c1C2=O)C[C@@](O)(C(=O)CO)C[C@@H]3OC1CC(NC=O)C(O)C(C)O1 (stereo not given in full)
inactive: dose: 6.25 mg/kg/injection, schedule: Q04DX003 (ip), vehicle: water 93 % of control | dose: 12.5 mg/kg/injection, schedule: Q04DX003 (ip), vehicle: water 93 % of control | dose: 25.0 mg/kg/injection, schedule: Q04DX003 (ip), vehicle: water 102 % of control | dose: 50.0 mg/kg/injection, schedule: Q04DX003 (ip), vehicle: water 112 % of control | dose: 100.0 mg/kg/injection, schedule: Q04DX003 (ip), vehicle: water 114 % of control

CCCCCCCCCCCCNC(=O)OCCN(CCOC(=O)NCCCCCCCCCCCC)C(=O)COc1ccc(Cl)cc1
inactive: dose: 100.0 mg/kg/injection, schedule: Q04DX003 (ip), vehicle: other 86 % of control | dose: 200.0 mg/kg/injection, schedule: Q04DX003 (ip), vehicle: other 91 % of control | dose: 400.0 mg/kg/injection, schedule: Q04DX003 (ip), vehicle: other 93 % of control

O=C1CSC(=S)N1/N=C/c1ccc(Cl)c([N+](=O)[O-])c1
inactive: [8] 92 % of control | [4] 92 % of control | [10] 100 % of control | [5] 95 % of control | [12] 90 % of control | [6] 86 % of control

COc1ccc(NC(=O)Oc2ccccc2F)c(Cl)c1
inactive: dose: 50.0 mg/kg/injection, schedule: Q01DX009 (ip), vehicle: Klucel (hydroxypropylcellulose) (HPC) 96 % of control | dose: 100.0 mg/kg/injection, schedule: Q01DX009 (ip), vehicle: Klucel (hydroxypropylcellulose) (HPC) 107 % of control | dose: 200.0 mg/kg/injection, schedule: Q01DX009 (ip), vehicle: Klucel (hydroxypropylcellulose) (HPC) 104 % of control

COc1ccc(CCOS(=O)(=O)c2ccc(C)cc2)cc1
inactive: [7] 103 % of control | [9] 101 % of control | [11] 101 % of control

O=C1C(O)=Cc2coc(=O)c3ccc(-c4ccccc4)c1c23
inactive: [7] 91 % of control

CC1(C)c2c3ccccc3cc3cccc(c23)[S+]1c1ccccc1 (stereo not given)
inactive: dose: 5.0 mg/kg/injection, schedule: Q01DX001 (ip), vehicle: saline with Tween-80 105 % of control | dose: 10.0 mg/kg/injection, schedule: Q01DX001 (ip), vehicle: saline with Tween-80 106 % of control | dose: 20.0 mg/kg/injection, schedule: Q01DX001 (ip), vehicle: saline with Tween-80 111 % of control

CCC(CC)(CC)CCS(=O)[O-].[C-]#[O+].[C-]#[O+].[Fe+6].[c-]1[c-][c-][cH-][c-]1
inactive: [2] 93 % of control | [3] 93 % of control | dose: 200.0 mg/kg/injection, schedule: Q04DX002 (ip), vehicle: saline with Tween-80 104 % of control
